Laboratory results taken from patent publication US7507547B2, “Screening assays for antioxidants and antiproliferative compounds” (University of Massachusetts, priority 2004, dated 2009).
“And” between values parts separate entries of the source, which are not always exact repeats. Equal values may be shown once. Read-outs that look alike come from different tables or passages of the source. Square brackets hold non-standard residues; d marks the D form. Peptide text beside a SMILES is read from it. * marks the point of attachment. pGlu = O=C1CC[C@@H](C(=O)O)N1; X1 = O=C(Cc1ccc(O)c(I)c1)*; Nle = CCCC[C@H](N)C(=O)O

Assays:
[1] = test system: ATP-induced IP formation in PC3 cells; settings: maximal dose (10 μM)
NTR1 [2] = molecular target: T1, NTR1 (Homo sapiens, UniProt P30989); experiment: ^125I-NT binding to PC3 cell membranes; settings: 22° C., 60 minutes
T1 construct: endogenous in cells; host or cells: PC3 cells (ATCC)

EGF receptor = molecular target: T2, EGF receptor (Homo sapiens, UniProt P00533); experiment: ^125I-EGF binding to PC3 cells
T2 construct: endogenous in cells; host or cells: PC3 cells (ATCC)

bombesin receptor = molecular target: T3, bombesin receptor (Homo sapiens, UniProt P30550); experiment: ^125I-[Nle14]-bombesin binding to PC3 cells
T3 construct: endogenous in cells; host or cells: PC3 cells (ATCC)

NTR1 [3] = molecular target: T1, NTR1; experiment: ^125I-NT binding to PC3 cells; settings: for NT Binding Assay: ability to enhance NT binding in PC3 cells; for Efficacy for altering NT binding to NTR: flavonoids
[4] = molecular target: T4, vasopressin (V1a) receptor (Homo sapiens, UniProt P37288); experiment: ^125I-HOLVA binding to PC3 cells
T4 construct: endogenous in cells; host or cells: PC3 cells (ATCC)

5-LOX = settings: range of reported values, various blood cell systems; cited from earlier work
β2-adrenergic receptor [5] = molecular target: T5, β2-adrenergic receptor (Homo sapiens, UniProt P07550); experiment: ^125I-pindolol binding to PC3 cells
T5 construct: endogenous in cells; host or cells: PC3 cells (ATCC)

[6] = set-up: key: +: All of the compounds listed in Table 12 were anticancerous; settings: from anticancer literature; cited from earlier work
[7] = molecular target: T4, vasopressin (V1a) receptor; experiment: ^125I-HOLVA binding to PC3 cell membranes; settings: 60 μM agent
NTR1 [8] = molecular target: T1, NTR1; experiment: Cell-surface binding and internalization of ^125I-NT in PC3 cells; format: cell-based; settings: 50 μM agent, 37° C., prebound at 4° C.
[9] = test system: NT-induced inositol phosphate (IP) formation in PC3 cells; experiment: NT-induced IP formation in PC3 cells; format: cell-based; settings: for IC50: Homo sapiens, PC-3; for IP Formation Efficacy (% decrease): maximal % decrease in NT-induced IP formation
β2-adrenergic receptor [10] = molecular target: T5, β2-adrenergic receptor; experiment: ^125I-pindolol binding to PC3 cell membranes; settings: 60 μM agent
[11] = test system: IP formation in PC3 cells; experiment: IP formation in PC3 cells in response to ionomycin; format: cell-based
Method: Ca^2+-ionophore (ionomycin) stimulated IP formation, reproducing ≅63% of the NT response. […] When added 2 minutes after a maximal dose of NT (30 nM), low doses of ionomycin (2-10 μM) enhanced the NT response. […] In contrast, a maximal dose of ionomycin gave less than additive enhancement of the NT response.

ERK = experiment: NT-induced ERK activation in PC3 cells (western blot); format: cell-based; settings: for IC50: Homo sapiens, PC-3, 0.05 h, 3 minutes, 10 nM NT
Method: Anticancer activity was assessed using methods from Hassan et al., Regul. […] Western blotting was used to assess activation of growth pathways. In particular we measured the activation of a MAP-kinase called ERK using antibodies specific for the phosphorylated form. Serum was withdrawn for 24 hours from 80% confluent PC3 cells in 60 mm dishes. Cells were washed in Locke, then exposed for 3 minutes to 10 nM NT as stimulus. Reactions were stopped on ice, and cells were washed in buffer containing phosphatase and protease inhibitors. Cells were extracted into 2×SDS buffer, and proteins were separated by SDS-PAGE using 10% minigels. Proteins were electroeluted onto PVDF, and blots were blocked in non-fat dry milk in TTBS buffer. Blots were incubated with the primary antibody in blocking buffer for 18 hours at 4° C., washed in TTBS, then incubated with horseradish peroxidase-linked secondary antibody for 1 hour at 20° C. Enhanced chemoluminescence was performed according to manufacturer (Santa Cruz) and autoradiographs were scanned for computerized densitometric analysis. The results for the phospho-ERK were normalized by stripping the blots and reprobing with antibodies that measured the total ERK concentration.

PC3 cells = experiment: NT-induced proliferation of PC3 cells (^3H-thymidine); format: cell-based; settings: for IC50: Homo sapiens, PC-3, 24 hours, 10 nM NT, read-out: IC50 for inhibition of NT-induced proliferation
melanoma cell growth = settings: Casagrande and Darbon, 2001; cited from earlier work
[12] = test system: cancers from skin, pancreas, liver and breast; settings: Huang et al., 1999; cited from earlier work
protein kinase C = settings: Ferriola et al., 1989; cited from earlier work
[13] = molecular target: neurotensin-1 receptor (NTR1) (Homo sapiens, UniProt P30989); settings: read-out: binding affinity; cited from earlier work
[14] = molecular target: neurotensin-2 receptor (NTR2) (Homo sapiens, UniProt O95665); settings: read-out: binding affinity; cited from earlier work
[15] = [agent] at which IP formation was decreased by 50%
[16] = 10^5 cpm ^125I-ligand, PC3 cells

T1 sequence (P30989 whole entry): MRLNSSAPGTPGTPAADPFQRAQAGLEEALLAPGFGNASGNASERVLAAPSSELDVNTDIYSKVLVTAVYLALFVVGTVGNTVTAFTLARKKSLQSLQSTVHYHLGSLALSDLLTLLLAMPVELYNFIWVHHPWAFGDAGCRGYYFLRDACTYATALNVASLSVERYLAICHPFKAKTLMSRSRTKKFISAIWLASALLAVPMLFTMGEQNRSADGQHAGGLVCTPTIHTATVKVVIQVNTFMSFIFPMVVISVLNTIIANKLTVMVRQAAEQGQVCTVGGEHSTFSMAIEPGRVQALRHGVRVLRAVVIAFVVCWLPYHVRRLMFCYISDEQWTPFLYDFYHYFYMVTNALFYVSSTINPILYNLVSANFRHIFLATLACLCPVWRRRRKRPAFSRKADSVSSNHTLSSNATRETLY
T2 sequence (P00533 25-1210): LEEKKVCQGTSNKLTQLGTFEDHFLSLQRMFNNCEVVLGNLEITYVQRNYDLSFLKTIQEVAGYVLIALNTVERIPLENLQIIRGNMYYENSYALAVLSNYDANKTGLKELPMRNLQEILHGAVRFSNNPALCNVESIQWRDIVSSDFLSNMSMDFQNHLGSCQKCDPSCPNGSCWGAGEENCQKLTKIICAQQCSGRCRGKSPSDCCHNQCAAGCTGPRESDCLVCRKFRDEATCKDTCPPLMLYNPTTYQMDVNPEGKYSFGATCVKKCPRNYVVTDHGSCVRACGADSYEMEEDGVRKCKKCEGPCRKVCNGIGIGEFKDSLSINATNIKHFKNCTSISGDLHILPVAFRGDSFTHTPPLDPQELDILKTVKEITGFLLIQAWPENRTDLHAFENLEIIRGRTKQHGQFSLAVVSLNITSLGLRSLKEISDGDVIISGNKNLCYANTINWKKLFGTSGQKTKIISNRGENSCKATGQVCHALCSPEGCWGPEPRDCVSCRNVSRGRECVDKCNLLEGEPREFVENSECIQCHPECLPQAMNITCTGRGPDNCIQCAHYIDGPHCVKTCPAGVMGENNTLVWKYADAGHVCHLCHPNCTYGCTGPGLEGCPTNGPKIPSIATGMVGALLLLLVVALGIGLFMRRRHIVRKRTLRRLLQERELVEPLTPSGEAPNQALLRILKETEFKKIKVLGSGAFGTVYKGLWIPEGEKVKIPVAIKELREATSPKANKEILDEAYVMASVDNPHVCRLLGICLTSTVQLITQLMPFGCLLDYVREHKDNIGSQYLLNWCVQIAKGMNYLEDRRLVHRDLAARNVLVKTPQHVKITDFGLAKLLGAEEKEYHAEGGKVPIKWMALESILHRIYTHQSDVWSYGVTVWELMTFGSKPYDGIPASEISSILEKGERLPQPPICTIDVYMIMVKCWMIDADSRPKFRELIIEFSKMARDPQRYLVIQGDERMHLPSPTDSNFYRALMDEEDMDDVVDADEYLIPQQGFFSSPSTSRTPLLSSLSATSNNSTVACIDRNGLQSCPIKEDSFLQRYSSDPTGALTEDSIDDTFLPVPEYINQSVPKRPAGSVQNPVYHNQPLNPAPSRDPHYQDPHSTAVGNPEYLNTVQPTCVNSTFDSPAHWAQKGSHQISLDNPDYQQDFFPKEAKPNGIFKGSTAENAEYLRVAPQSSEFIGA
T5 sequence (P07550 whole entry): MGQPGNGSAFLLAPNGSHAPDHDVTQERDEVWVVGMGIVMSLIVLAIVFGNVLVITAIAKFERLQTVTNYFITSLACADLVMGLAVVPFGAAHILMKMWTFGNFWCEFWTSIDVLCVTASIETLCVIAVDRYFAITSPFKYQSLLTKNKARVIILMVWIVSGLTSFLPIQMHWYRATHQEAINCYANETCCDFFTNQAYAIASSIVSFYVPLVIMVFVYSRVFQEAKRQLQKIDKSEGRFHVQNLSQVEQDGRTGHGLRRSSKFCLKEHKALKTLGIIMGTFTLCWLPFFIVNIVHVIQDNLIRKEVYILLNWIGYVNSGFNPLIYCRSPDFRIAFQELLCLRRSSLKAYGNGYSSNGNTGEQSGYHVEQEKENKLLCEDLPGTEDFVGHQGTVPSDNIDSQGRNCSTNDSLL
T3 sequence (P30550 whole entry): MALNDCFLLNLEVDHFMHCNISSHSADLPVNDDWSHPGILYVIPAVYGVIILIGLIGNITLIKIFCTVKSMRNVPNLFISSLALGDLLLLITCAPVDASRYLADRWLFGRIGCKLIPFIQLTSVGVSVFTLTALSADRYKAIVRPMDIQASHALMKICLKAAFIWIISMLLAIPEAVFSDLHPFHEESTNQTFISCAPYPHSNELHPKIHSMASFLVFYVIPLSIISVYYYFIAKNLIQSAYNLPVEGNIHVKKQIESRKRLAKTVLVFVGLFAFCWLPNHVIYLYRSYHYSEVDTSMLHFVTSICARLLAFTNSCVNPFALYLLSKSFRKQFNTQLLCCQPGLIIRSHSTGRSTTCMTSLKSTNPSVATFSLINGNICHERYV
T4 sequence (P37288 whole entry): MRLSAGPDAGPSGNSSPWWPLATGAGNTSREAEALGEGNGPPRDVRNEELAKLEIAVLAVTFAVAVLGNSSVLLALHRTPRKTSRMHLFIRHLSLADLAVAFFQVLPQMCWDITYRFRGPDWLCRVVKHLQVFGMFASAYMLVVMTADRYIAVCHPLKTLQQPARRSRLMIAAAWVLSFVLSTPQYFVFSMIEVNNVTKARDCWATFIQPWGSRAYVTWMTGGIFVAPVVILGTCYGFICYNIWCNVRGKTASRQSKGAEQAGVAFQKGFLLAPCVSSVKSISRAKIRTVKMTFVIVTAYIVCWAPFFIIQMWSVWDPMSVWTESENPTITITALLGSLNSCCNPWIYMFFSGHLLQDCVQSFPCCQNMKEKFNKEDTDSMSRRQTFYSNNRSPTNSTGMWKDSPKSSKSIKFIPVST
Sequence of neurotensin-1 receptor (NTR1) (P30989 whole entry, species assumed): as the sequence (P30989 whole entry) above
Sequence of neurotensin-2 receptor (NTR2) (O95665 whole entry, species assumed): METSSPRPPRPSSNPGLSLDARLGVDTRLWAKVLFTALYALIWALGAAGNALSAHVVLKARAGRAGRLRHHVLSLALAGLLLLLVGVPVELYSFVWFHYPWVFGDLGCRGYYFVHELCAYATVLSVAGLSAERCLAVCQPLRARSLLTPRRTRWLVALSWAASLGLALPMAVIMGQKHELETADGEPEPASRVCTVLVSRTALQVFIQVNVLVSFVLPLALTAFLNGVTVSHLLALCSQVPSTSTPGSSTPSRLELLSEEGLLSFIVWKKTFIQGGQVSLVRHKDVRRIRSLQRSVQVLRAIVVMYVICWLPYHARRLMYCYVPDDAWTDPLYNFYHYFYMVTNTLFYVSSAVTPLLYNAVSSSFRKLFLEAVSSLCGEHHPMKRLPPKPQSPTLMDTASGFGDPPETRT

Nc1ncnc2c1ncn2[C@@H]1O[C@H](COP(=O)(O)OP(=O)(O)OP(=O)(O)O)[C@@H](O)[C@H]1O [ATP]
Stimulation of IP formation by ATP [1]: ~17 fold and > 15 fold

CC(C)c1ccc2c(c1)c(SC(C)(C)C)c(CC(C)(C)C(=O)O)n2Cc1ccc(Cl)cc1 [MK886]
Specific NT-Binding (% control) (NTR1 [2]; 10 μM agent): 99 ± 3 % control | Specific NT-Binding (% control) (NTR1 [2]; 25 μM agent): 107 ± 4 % control | Specific NT-Binding (% control) (NTR1 [2]; 75 μM agent): 97 ± 4 % control | Specific Binding (% control) (EGF receptor; 12 μM agent): 141 ± 7 % control | Specific Binding (% control) (EGF receptor; 60 μM agent): 165 ± 11 % control | Increase in EGF binding (EGF receptor; PC3 cells): 65% | Specific Binding (% control) (bombesin receptor; 12 μM agent): 106 ± 5 % control | Specific Binding (% control) (bombesin receptor; 60 μM agent): 125 ± 7 % control | NT Binding Efficacy % increase (NTR1 [3]; LOX blockers): 210 % increase | EC50 (NTR1 [3]; [agent] giving 100% increase in NT binding): 18 µM | NT Binding Assay (NTR1 [3]): + | Specific Binding (% control) ([4]; 12 μM agent): 93 ± 5 % control | Specific Binding (% control) ([4]; 60 μM agent): 67 ± 3 % control | IC50 (5-LOX): 0.1 to 1 µM | Specific Binding (% control) (β2-adrenergic receptor [5]; 12 μM agent): 105 ± 3 % control | Specific Binding (% control) (β2-adrenergic receptor [5]; 60 μM agent): 102 ± 6 ^ % control | Anti-cancer [6]: +

COC(=O)C1=C(C)NC(C)=C(C(=O)OC)C1c1ccccc1[N+](=O)[O-] [NIF, nifedipine]
Binding (% control ± SEM) [7]: 90 ± 3 % control

O=C(CCc1ccc(O)cc1)c1c(O)cc(O)cc1O [Phloretin]
Internalization rate of prebound cell-surface ^125I-NT (NTR1 [8]): 8.1±0.7 %/minute | EC50 (NTR1 [3]): 27 µM | IC50 [9, 15]: 23 µM | IP Formation Efficacy (% decrease) [9]: 70 % decrease

COc1ccc(CCCOC(Cn2ccnc2)c2ccc(OC)cc2)cc1 (centres unmarked) [SKF-96365]
Binding (% control ± SEM) (β2-adrenergic receptor [10]): 18 ± 5 % control | EC50 (NTR1 [3]; [agent] at which NT binding was increased by 80%): 23 µM | NT Binding Efficacy % increase (NTR1 [3]; maximal % increase in NT binding observed for each agent): 155 % increase | Binding (% control ± SEM) [7]: 110 ± 3 % control | % crossreaction (direct competition with ^125I-pindolol) (β2-adrenergic receptor [5]): ~0.0005% | IC50 [9, 15]: 26 µM | IP Formation Efficacy (% decrease) [9]: 69 % decrease

COc1ccc(CCN(C)CCCC(C#N)(c2ccc(OC)c(OC)c2)C(C)C)cc1OC (centres unmarked) [Verapamil, verapamil]
Binding (% control ± SEM) (β2-adrenergic receptor [10]): 9 ± 2 % control | Binding (% control ± SEM) [7]: 91 ± 5 % control | % crossreaction (direct competition with ^125I-pindolol) (β2-adrenergic receptor [5]): ~0.0005%

CCOc1ccc(C[C@@H](NC(=O)Cc2ccc(O)c(I)c2)C(=O)N[C@@H](Cc2ccccc2)C(=O)N[C@@H](CCC(N)=O)C(=O)N[C@@H](CC(N)=O)C(=O)N[C@@H](CCCCN)C(=O)N2CCC[C@H]2C(=O)N[C@@H](CCCNC(=N)N)C(N)=O)cc1 [^125I-HOLVA, des-Gly-[Phaal, D-Tyr(Et)2, Lys6, Arg8]-vasopressin] (X1-[dY](Et)FQNKPR-NH2; N-terminus and C-terminus assumed)
Specific Binding (% of total) [4, 16]: 77 % of total | Bmax ([4]; Scatchard analysis): 156 ± 12 fmol/mg

CCCC[C@H](NC(=O)[C@H](CC(C)C)NC(=O)[C@H](Cc1c[nH]cn1)NC(=O)CNC(=O)[C@@H](NC(=O)[C@H](C)NC(=O)[C@H](Cc1c[nH]c2ccccc12)NC(=O)[C@H](CCC(N)=O)NC(=O)[C@H](CC(N)=O)NC(=O)CNC(=O)[C@H](Cc1ccc(O)cc1)NC(=O)[C@H](CCCNC(=N)N)NC(=O)[C@H](CCC(N)=O)NC(=O)[C@@H]1CCC(=O)N1)C(C)C)C(N)=O [^125I-[Nle^14]-bombesin] ([pGlu]QRYGNQWAVGHL[Nle]-NH2; C-terminus assumed)
Specific Binding (% of total) (bombesin receptor; [16]): 95 % of total | Bmax (bombesin receptor; Scatchard analysis): 1016 ± 64 fmol/mg

C[C@H](CCC(=O)O)C[C@H](C)C[C@H](C)C(=O)/C=C(\O)[C@H](C)C[C@H](C)C/C=C/[C@@H](C)[C@@H](O)[C@@H](C)[C@@H](O)C[C@@H]1CC[C@@](C)([C@H]2CC[C@@](C)([C@@H](C)O)O2)O1 [ionomycin]
IP formation as share of the NT response [11]: ~63%

O=c1c(O)c(-c2ccc(O)c(O)c2)oc2cc(O)cc(O)c12 [quercetin]
NT Binding Assay (NTR1 [3]): + | IC50 (ERK): 25 µM | Anti-cancer [6]: + | IC50 (PC3 cells): 0.5 µM

Oc1ccc(C=Cc2cc(O)cc(O)c2)cc1 [resveratrol]
IC50 (ERK): 50 µM | IC50 ([9]; [agent] giving 50% decrease in IP formation): 48 µM | IC50 (PC3 cells): 3 µM

C(=Cc1ccccc1)c1ccccc1 [stilbene]
Effect on NT-induced ERK activation (ERK): inactive | Effect on NT-induced cell proliferation (PC3 cells): inactive

O=C1c2c(O)cc(O)cc2O[C@H](c2ccc(O)c(O)c2)[C@H]1O [taxifolin]
Efficacy to inhibit melanoma cell growth (melanoma cell growth): inactive | Efficacy for altering NT binding to NTR (NTR1 [3]): inactive | Efficacy to inhibit growth of cancers from skin, pancreas, liver and breast [12]: inactive | Effect on NT-induced ERK activation (ERK): inactive | Effect on NT-induced cell proliferation (PC3 cells): inactive | Efficacy to inhibit protein kinase C (protein kinase C): inactive

Trp 11 NT(1-13): peptide identical to NT (1-13) except for substitution of tryptophan for tyrosine at amino acid 11 (QLYENKPRRPWIL; Neurotensin; UniProt P30990 151-163, looked up, variant Y11W)
Kd [13]: ~0.001 µM | Kd [14]: ~0.027 µM

catechin
Efficacy to inhibit melanoma cell growth (melanoma cell growth): inactive | Efficacy for altering NT binding to NTR (NTR1 [3]): inactive | Efficacy to inhibit growth of cancers from skin, pancreas, liver and breast [12]: inactive | Efficacy to inhibit protein kinase C (protein kinase C): inactive
